In ChEMBL document CHEMBL4190352, “Continued SAR exploration of 1,2,4-thiadiazole-containing scaffolds in the design of free fatty acid receptor 1 (GPR40) agonists” (Eur J Med Chem, 2017):
Activity calls are given as the source filed them. The rule behind the calls is not given here.

What was measured:
Assay type in all cases: functional, cell-based
[1] = target: T1, Free fatty acid receptor 1 (Homo sapiens, UniProt O14842); assay: Agonist activity at human GPR40/FFA1 expressed in CHO cells assessed as increase in calcium flux at 1 uM by Fluo-8 AM dye based FLIPR method relative to 10 uM GW9508
[2] = target: T1, Free fatty acid receptor 1; assay: Agonist activity at human GPR40/FFA1 expressed in CHO cells assessed as increase in calcium flux at 1 uM by Fluo-8 AM dye based FLIPR method
[3] = target: T2, Free fatty acid receptor 3 (Homo sapiens) (UniProt O14843); assay: Agonist activity at GPR41/FFA3 (unknown origin) expressed in CHO cells assessed as increase in calcium flux at 10 uM by Fluo-8 AM dye based FLIPR method
T2 sequence (whole entry): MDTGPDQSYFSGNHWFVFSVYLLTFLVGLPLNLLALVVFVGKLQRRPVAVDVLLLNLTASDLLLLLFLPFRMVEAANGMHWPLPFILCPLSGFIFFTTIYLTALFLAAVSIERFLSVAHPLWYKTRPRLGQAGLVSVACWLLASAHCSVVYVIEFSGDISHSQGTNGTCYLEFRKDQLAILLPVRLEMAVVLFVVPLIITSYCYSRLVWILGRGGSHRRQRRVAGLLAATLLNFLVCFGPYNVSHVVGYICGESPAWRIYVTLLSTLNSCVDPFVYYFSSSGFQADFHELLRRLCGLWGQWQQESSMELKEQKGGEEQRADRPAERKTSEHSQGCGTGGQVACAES

[4] = target: T3, Free fatty acid receptor 2 (Homo sapiens) (UniProt O15552); assay: Agonist activity at GPR43/FFA2 (unknown origin) expressed in CHO cells assessed as increase in calcium flux at 10 uM by Fluo-8 AM dye based FLIPR method
T3 sequence (whole entry): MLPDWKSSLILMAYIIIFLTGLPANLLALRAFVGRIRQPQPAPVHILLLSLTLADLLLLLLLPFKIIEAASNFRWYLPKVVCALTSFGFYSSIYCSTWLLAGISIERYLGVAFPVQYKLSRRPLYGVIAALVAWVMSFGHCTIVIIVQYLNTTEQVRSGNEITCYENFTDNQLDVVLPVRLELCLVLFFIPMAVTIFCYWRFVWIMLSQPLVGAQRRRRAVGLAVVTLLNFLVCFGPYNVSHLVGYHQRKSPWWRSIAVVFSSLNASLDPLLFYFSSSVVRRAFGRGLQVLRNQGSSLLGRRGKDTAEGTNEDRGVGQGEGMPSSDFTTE

[5] = target: T4, Free fatty acid receptor 4 (Homo sapiens) (UniProt Q5NUL3); assay: Agonist activity at GPR120/FFA4 (unknown origin) expressed in CHO cells assessed as increase in calcium flux at 10 uM by Fluo-8 AM dye based FLIPR method
T4 sequence (whole entry): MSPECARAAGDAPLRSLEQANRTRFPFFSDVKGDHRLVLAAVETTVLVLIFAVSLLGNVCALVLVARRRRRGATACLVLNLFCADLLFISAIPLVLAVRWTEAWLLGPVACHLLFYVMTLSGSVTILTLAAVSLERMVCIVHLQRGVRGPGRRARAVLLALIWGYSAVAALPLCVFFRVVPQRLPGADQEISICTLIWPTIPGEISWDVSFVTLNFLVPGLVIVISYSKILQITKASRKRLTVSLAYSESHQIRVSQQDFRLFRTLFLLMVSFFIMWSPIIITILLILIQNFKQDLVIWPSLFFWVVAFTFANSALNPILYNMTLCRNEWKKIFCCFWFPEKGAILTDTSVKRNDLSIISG

T1 sequence (O14842 whole entry): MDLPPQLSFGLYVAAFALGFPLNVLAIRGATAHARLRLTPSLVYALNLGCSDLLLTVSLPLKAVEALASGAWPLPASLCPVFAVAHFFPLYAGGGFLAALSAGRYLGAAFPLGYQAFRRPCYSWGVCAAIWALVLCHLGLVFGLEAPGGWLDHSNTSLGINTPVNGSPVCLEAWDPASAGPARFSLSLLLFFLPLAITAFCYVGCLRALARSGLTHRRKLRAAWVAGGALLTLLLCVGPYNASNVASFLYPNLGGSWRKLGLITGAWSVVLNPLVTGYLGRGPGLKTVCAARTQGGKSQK

Question: How did the Activity [1] turn out when `Cc1ccc(C)c(OCc2nnc(C(=O)Nc3ccc(CCC(=O)O)cc3)s2)c1` was run?
Answer: 88.2%

Question: And the EC50 [2]?
Answer: 1.53 µM

Question: And the Activity [3]?
Answer: inactive

Question: What about the Activity [4] of the same molecule?
Answer: inactive

Question: What about the Activity [5] of the same molecule?
Answer: inactive

Question: `CCOC(=O)c1ccc(NC(=O)c2nnc(C(=O)Nc3ccc(OCC(=O)O)cc3)s2)cc1` was tested. Which Activity [1] did it give?
Answer: 9.4%

Question: And the EC50 [2]?
Answer: > 10 µM

Question: Which Activity [1] does the source give for `O=C(O)COc1ccc(NC(=O)c2nnc(C(=O)Nc3ccc(Br)cc3)s2)cc1` here?
Answer: 5.9%

Question: What about the EC50 [2] of the same molecule?
Answer: > 10 µM

Question: Which results are given for `O=C(O)COc1ccc(NC(=O)c2nnc(C(=O)Nc3ccc(F)cc3)s2)cc1`?
Answer: Activity [1]: 6%; EC50 [2]: > 10 µM

Question: Which Activity [1] does the source give for `O=C(O)COc1ccc(NC(=O)c2nnc(C(=O)Nc3ccccc3)s2)cc1` here?
Answer: 7.8%

Question: And the EC50 [2]?
Answer: > 10 µM

Question: Which Activity [1] does the source give for `O=C(O)COc1ccc(NC(=O)c2nnc(C(=O)Nc3ccc(F)c(F)c3)s2)cc1` here?
Answer: 6.6%

Question: What about the EC50 [2] of the same molecule?
Answer: > 10 µM

Question: With `Cc1cccc(NC(=O)c2nnc(C(=O)Nc3ccc(OCC(=O)O)cc3)s2)c1C` as the molecule, how does the Activity [1] read?
Answer: 6.6%

Question: And the EC50 [2]?
Answer: > 10 µM

Question: Which results are given for `O=C(O)CCc1ccc(NC(=O)c2nnc(Cc3ccc(Cl)cc3)s2)cc1`?
Answer: Activity [1]: 72.3%; EC50 [2]: 2.39 µM; Activity [3]: inactive; Activity [4]: inactive; Activity [5]: inactive

Question: How did the Activity [1] turn out when `O=C(O)CCc1ccc(NC(=O)c2nnc(CC(c3ccccc3)c3ccc(Cl)cc3)s2)cc1` (centres undefined) was run?
Answer: 84.9%

Question: And the EC50 [2]?
Answer: 2.71 µM

Question: What about the Activity [3] of the same molecule?
Answer: inactive

Question: And the Activity [4]?
Answer: inactive

Question: What about the Activity [5] of the same molecule?
Answer: inactive

Question: What does the source list for `O=C(O)CCc1ccc(NC(=O)c2nnc(CC(c3ccccc3)c3ccccc3F)s2)cc1` (centres undefined)?
Answer: Activity [1]: 68.6%; EC50 [2]: 1.02 µM; Activity [3]: inactive; Activity [4]: inactive; Activity [5]: inactive

Question: Which Activity [1] does the source give for `Cc1ccccc1NC(=O)c1nnc(C(=O)Nc2ccc(OCC(=O)O)cc2)s1` here?
Answer: 6.6%

Question: What about the EC50 [2] of the same molecule?
Answer: > 10 µM

Question: What does the source list for `O=C(O)CCc1ccc(NC(=O)c2nnc(COc3ccc(F)cc3)s2)cc1`?
Answer: Activity [1]: 48.5%; EC50 [2]: 5.39 µM; Activity [3]: inactive; Activity [4]: inactive; Activity [5]: inactive

Question: Which Activity [1] does the source give for `O=C(O)CCc1ccc(NC(=O)c2nnc(CC(c3ccccc3)c3ccc4c(c3)OCO4)s2)cc1` (centres undefined) here?
Answer: 60.3%

Question: What about the EC50 [2] of the same molecule?
Answer: 4.12 µM

Question: What about the Activity [3] of the same molecule?
Answer: inactive

Question: What about the Activity [4] of the same molecule?
Answer: inactive

Question: And the Activity [5]?
Answer: inactive

Question: With `Cc1ccc(NC(=O)c2nnc(C(=O)Nc3ccc(OCC(=O)O)cc3)s2)cc1` as the molecule, how does the Activity [1] read?
Answer: 7%

Question: And the EC50 [2]?
Answer: > 10 µM

Question: What does the source list for `O=C(O)CCc1ccc(NC(=O)c2nnc(COc3cccc(C(F)(F)F)c3)s2)cc1`?
Answer: Activity [1]: 70.1%; EC50 [2]: 3.09 µM; Activity [3]: inactive; Activity [4]: inactive; Activity [5]: inactive

Question: With `Cc1ccc(OCc2nnc(C(=O)Nc3ccc(CCC(=O)O)cc3)s2)c(C)c1` as the molecule, how does the Activity [1] read?
Answer: 74.7%

Question: And the EC50 [2]?
Answer: 2.54 µM

Question: What about the Activity [3] of the same molecule?
Answer: inactive

Question: And the Activity [4]?
Answer: inactive

Question: What about the Activity [5] of the same molecule?
Answer: inactive

Question: For `O=C(O)CCc1ccc(NC(=O)c2nnc(Cc3cccc(F)c3)s2)cc1`, which Activity [1] is on record?
Answer: 60.3%

Question: And the EC50 [2]?
Answer: 5.02 µM

Question: And the Activity [3]?
Answer: inactive

Question: What about the Activity [4] of the same molecule?
Answer: inactive

Question: And the Activity [5]?
Answer: inactive

Question: How did the Activity [1] turn out when `Cc1cccc(NC(=O)c2nnc(C(=O)Nc3ccc(OCC(=O)O)cc3)s2)c1` was run?
Answer: 6%

Question: And the EC50 [2]?
Answer: > 10 µM

Question: Which Activity [1] does the source give for `O=C(O)COc1ccc(NC(=O)c2nnc(C(=O)Nc3ccc(F)cc3F)s2)cc1` here?
Answer: 6.6%

Question: And the EC50 [2]?
Answer: > 10 µM

Question: With `CCOC(=O)c1cccc(NC(=O)c2nnc(C(=O)Nc3ccc(OCC(=O)O)cc3)s2)c1` as the molecule, how does the Activity [1] read?
Answer: 6.4%

Question: And the EC50 [2]?
Answer: > 10 µM

Question: What does the source list for `Cc1ccc(NC(=O)c2nnc(C(=O)Nc3ccc(OCC(=O)O)cc3)s2)cc1C`?
Answer: Activity [1]: 2.8%; EC50 [2]: > 10 µM

Question: How did the Activity [1] turn out when `CCc1ccc(OCc2nnc(C(=O)Nc3ccc(CCC(=O)O)cc3)s2)cc1` was run?
Answer: 74.4%

Question: What about the EC50 [2] of the same molecule?
Answer: 1.17 µM

Question: And the Activity [3]?
Answer: inactive

Question: And the Activity [4]?
Answer: inactive

Question: What about the Activity [5] of the same molecule?
Answer: inactive

Question: For `O=C(O)CCc1ccc(NC(=O)c2nnc(COc3cccc(Cl)c3)s2)cc1`, which Activity [1] is on record?
Answer: 82.9%

Question: What about the EC50 [2] of the same molecule?
Answer: 1.57 µM

Question: And the Activity [3]?
Answer: inactive

Question: What about the Activity [4] of the same molecule?
Answer: inactive

Question: What about the Activity [5] of the same molecule?
Answer: inactive

Question: What does the source list for `O=C(O)CCc1ccc(NC(=O)c2nnc(Cc3ccccc3)s2)cc1`?
Answer: Activity [1]: 70.1%; EC50 [2]: 3.67 µM; Activity [3]: inactive; Activity [4]: inactive; Activity [5]: inactive

Question: How did the Activity [1] turn out when `O=C(O)COc1ccc(NC(=O)c2nnc(C(=O)Nc3ccc(Cl)cc3)s2)cc1` was run?
Answer: 4.2%

Question: What about the EC50 [2] of the same molecule?
Answer: > 10 µM

Question: With `Cc1ccc(OCc2nnc(C(=O)Nc3ccc(CCC(=O)O)cc3)s2)cc1C` as the molecule, how does the Activity [1] read?
Answer: 64.9%

Question: What about the EC50 [2] of the same molecule?
Answer: 1.13 µM

Question: And the Activity [3]?
Answer: inactive

Question: What about the Activity [4] of the same molecule?
Answer: inactive

Question: What about the Activity [5] of the same molecule?
Answer: inactive

Question: With `Cc1ccccc1OCc1nnc(C(=O)Nc2ccc(CCC(=O)O)cc2)s1` as the molecule, how does the Activity [1] read?
Answer: 89.9%

Question: And the EC50 [2]?
Answer: 1.52 µM

Question: And the Activity [3]?
Answer: inactive

Question: And the Activity [4]?
Answer: inactive

Question: And the Activity [5]?
Answer: inactive

Question: Which results are given for `COc1ccc(C(Cc2nnc(C(=O)Nc3ccc(CCC(=O)O)cc3)s2)c2ccccc2)cc1` (centres undefined)?
Answer: Activity [1]: 78.9%; EC50 [2]: 1.35 µM; Activity [3]: inactive; Activity [4]: inactive; Activity [5]: inactive

Question: How did the Activity [1] turn out when `O=C(O)COc1ccc(NC(=O)c2nnc(C(=O)Nc3ccccc3F)s2)cc1` was run?
Answer: 6%

Question: And the EC50 [2]?
Answer: > 10 µM

Question: `COc1ccc(OCc2nnc(C(=O)Nc3ccc(CCC(=O)O)cc3)s2)cc1` was tested. Which Activity [1] did it give?
Answer: 72.5%

Question: And the EC50 [2]?
Answer: 2.43 µM

Question: And the Activity [3]?
Answer: inactive

Question: What about the Activity [4] of the same molecule?
Answer: inactive

Question: And the Activity [5]?
Answer: inactive

Question: Which Activity [1] does the source give for `Cc1nnc(NC(=O)c2nnc(C(=O)Nc3ccc(OCC(=O)O)cc3)s2)s1` here?
Answer: 9.8%

Question: What about the EC50 [2] of the same molecule?
Answer: > 10 µM

Question: For `O=C(O)CCc1ccc(NC(=O)c2nnc(COc3ccc4c(c3)CCC4)s2)cc1`, which Activity [1] is on record?
Answer: 91.2%

Question: What about the EC50 [2] of the same molecule?
Answer: 1.38 µM

Question: And the Activity [3]?
Answer: inactive

Question: And the Activity [4]?
Answer: inactive

Question: What about the Activity [5] of the same molecule?
Answer: inactive

Question: Which results are given for `COc1ccc(C)cc1NC(=O)c1nnc(C(=O)Nc2ccc(OCC(=O)O)cc2)s1`?
Answer: Activity [1]: 6.6%; EC50 [2]: > 10 µM

Question: Which results are given for `Cc1ccc(OCc2nnc(C(=O)Nc3ccc(CCC(=O)O)cc3)s2)cc1`?
Answer: Activity [1]: 76.9%; EC50 [2]: 2.17 µM; Activity [3]: inactive; Activity [4]: inactive; Activity [5]: inactive

Question: With `Cc1cccc(OCc2nnc(C(=O)Nc3ccc(CCC(=O)O)cc3)s2)c1` as the molecule, how does the Activity [1] read?
Answer: 82.4%

Question: What about the EC50 [2] of the same molecule?
Answer: 3.26 µM

Question: What about the Activity [3] of the same molecule?
Answer: inactive

Question: What about the Activity [4] of the same molecule?
Answer: inactive

Question: And the Activity [5]?
Answer: inactive

Question: Which Activity [1] does the source give for `O=C(O)CCc1ccc(NC(=O)c2nnc(Cc3cccc(Cl)c3)s2)cc1` here?
Answer: 79.4%

Question: And the EC50 [2]?
Answer: 2.39 µM

Question: What about the Activity [3] of the same molecule?
Answer: inactive

Question: What about the Activity [4] of the same molecule?
Answer: inactive

Question: What about the Activity [5] of the same molecule?
Answer: inactive

Question: Which results are given for `COc1cccc(NC(=O)c2nnc(C(=O)Nc3ccc(OCC(=O)O)cc3)s2)c1`?
Answer: Activity [1]: 9.2%; EC50 [2]: > 10 µM
